Patent publication US20130053430A1, “MODULATION OF CETP EXPRESSION” (Isis Pharmaceuticals, Inc., priority 2010, published 2013)
Strand notation (5' to 3'): a small letter for the sugar, then the base; units joined by * are phosphorothioate-linked, units joined directly phosphodiester-linked; [ ] holds rarer units or linkages, { } end groups; capitals alone tell only the bases. e = 2'-O-(2-methoxyethyl) (MOE); [5mC] = 5-methylcytosine; d = 2'-deoxy (DNA)

Assays:
human CETP mRNA [1] = experiment: Dose-dependent antisense inhibition of human CETP in SW872 liposarcoma cells (Example 3); type: cell-based; conditions: Lipofectin, ~16 hours (Example 3)
Description: ISIS 17291 ([…], 6-8-6 MOE (SEQ ID NO: 115)), ISIS 17302 ([…], 6-8-6 MOE (SEQ ID NO: 116)), and ISIS 17305 ([…], 6-8-6 MOE (SEQ ID NO: 117), first disclosed in U.S. Ser. No. 11/031,827 (incorporated by reference herein), were also tested under the same conditions. Cells were plated at a density of 50,000 cells per well in a 24-well plate and transfected using Lipofectin reagent with 50 nM, 150 nM, and 300 nM concentrations of each antisense oligonucleotide. After approximately 16 hours, RNA was isolated from the cells and CETP mRNA levels were measured by quantitative real-time PCR. CETP mRNA levels were normalized to total RNA content, as measured by the house-keeping gene, GAPDH mRNA levels. Results are presented in Table 5 as percent inhibition of CETP, relative to untreated control cells.

[2] = Plasma cholesterol and triglyceride levels in huCETP transgenic mice (Example 5); type: in vivo; conditions: 50 mg/kg i.p. twice per week; for HDL / LDL / Total cholesterol / Triglycerides / VLDL: plasma
Description: (§1) The mice were divided into five treatment groups. The first four groups received intraperitoneal injections of ISIS 349511, ISIS 349512, ISIS 349515, or ISIS 349517 at a dose of 50 mg/kg twice per week for 6 weeks. The fifth group received intraperitoneal injections of saline twice weekly for 6 weeks.
Plasma cholesterol were extracted at weeks 3 and 6 by the method of Bligh and Dyer (Bligh, E. G. and Dyer, W. J. Can. J. Biochem. Physiol. 37: 911-917, 1959) and measured with an Olympus clinical analyzer (Hitachi Olympus AU400e, Melville, N.Y.). HDL, LDL and VLDL cholesterol were individually measured by HPLC. Triglyceride levels were measured with the use of a commercially available triglyceride kit (DCL Triglyceride Reagent; Diagnostic Chemicals Ltd.). The results are presented in Tables 13 and 14 and are expressed in mg/dL. There was a significant increase in HDL levels in mice treated with ISIS oligonucleotides.

human CETP mRNA [3] = experiment: Antisense inhibition of human CETP mRNA in SW872 liposarcoma cells (Example 1); type: cell-based; conditions: 150 nM antisense oligonucleotide, lipofectin, ~24 hours, relative to untreated control cells
In short: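 SW872 cells transfected (lipofectin) with 150 nM 5-10-5 MOE gapmer (phosphorothioate, 5-methylcytosine). After about 24 h, CETP mRNA measured by qRT-PCR, normalized to GAPDH; values are % inhibition versus untreated cells.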

human CETP mRNA [4] = experiment: Antisense inhibition of human CETP mRNA in primary hepatocytes from huCETP transgenic mice (Example 4); type: cell-based, mouse; conditions: cytofectin, ~24 hours
In short: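 Primary hepatocytes from human CETP transgenic mice, 17,500 cells/well, transfected by cytofectin with 100 nM or 200 nM antisense oligonucleotide. After about 24 h, CETP mRNA quantified by real-time PCR, normalised to GAPDH, as percent inhibition versus untreated cells.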

[5] = Plasma glucose in huCETP transgenic mice (Example 5); type: in vivo; conditions: 50 mg/kg i.p. twice per week
Description: as §1
Plasma glucose values were determined using a Beckman Glucose Analyzer II (Beckman Coulter) by a glucose oxidase method (Lott, J. A. et al., Clin. Chem. 21: 1754-1760, 1975).

CETP protein = experiment: Plasma CETP protein by ELISA in huCETP transgenic mice (Example 5); type: in vivo, human; conditions: normal chow, 50 mg/kg i.p. twice per week for 6 weeks, compared to PBS control
Description: as §1
Plasma levels of CETP protein were measured by ELISA (Alpco, N.H.). […] The results are expressed as percentage inhibition compared to the PBS control.

human CETP mRNA [6] = experiment: Liver CETP mRNA in huCETP transgenic mice, normal chow (Example 5); type: in vivo; conditions: 50 mg/kg i.p. twice per week for 6 weeks, relative to PBS control
Description: Male huCETP transgenic mice were maintained on a 12-hour light/dark cycle and fed ad libitum normal Purina mouse chow. Animals were acclimated for at least 7 days in the research facility before initiation of the experiment. Antisense oligonucleotides (ASOs) were prepared in buffered saline (PBS) and sterilized by filtering through a 0.2 micron filter. Oligonucleotides were dissolved in 0.9% PBS for injection.
as §1
Twenty four hours after the final dose, the animals were sacrificed and liver tissue was isolated. Liver RNA was isolated for real-time PCR analysis of CETP. Two primer probe sets, hCETP (forward sequence […], designated herein as SEQ ID NO: 118; reverse sequence […], designated herein as SEQ ID NO: 119; probe sequence TGCGGACCGATGCCCCTGAX, designated herein as SEQ ID NO: 120) and hCETP2_LTS00182 (forward sequence […], designated herein as SEQ ID NO: 38; reverse sequence GGCTCACGCCTTTGCTGTT, designated herein as SEQ ID NO: 39: probe sequence CGGCTCGAGGTAGTGTTTACAGCCCTCX, designated herein as SEQ ID NO: 40), were used. These primer probe sets target the CETP mRNA transcript at different regions. As presented in Table 7, treatment with antisense oligonucleotides reduced CETP mRNA expression. The primer probe sets were used individually and collectively to measure CETP mRNA expression and gave similar results in all three cases. The RNA expression levels were normalized to murine Cyclophilin, a house-keeping gene, which is constitutively expressed. Cyclophilin levels were measured using the primer probe set described in Table 2. The results are expressed as percent inhibition of CETP mRNA, relative to the PBS control.

[7] = Body and organ weights of huCETP transgenic mice (Example 5); type: in vivo; conditions: 50 mg/kg i.p. twice per week
Description: as §1
The body weights of the mice were measured pre-dose and regularly during the treatment period. The body weights are presented in Table 10, and are expressed in grams.

human CETP mRNA [8] = experiment: Dose-dependent antisense inhibition of human CETP in SW872 liposarcoma cells (Example 2); type: cell-based; conditions: Lipofectin, ~16 hours (Example 2)
Description: Cells were plated at a density of 50,000 cells per well in a 24-well plate and transfected using Lipofectin reagent with 50 nM, 150 nM, and 300 nM concentrations of each antisense oligonucleotide. After approximately 16 hours, RNA was isolated from the cells and CETP mRNA levels were measured by quantitative real-time PCR. CETP mRNA levels were normalized to total RNA content, as measured by the house-keeping gene, GAPDH mRNA levels. Results are presented in Table 4 as percent inhibition of CETP, relative to untreated control cells.

| Substance | percent inhibition of CETP (human CETP mRNA [1]; 50 nM) [%] | percent inhibition of CETP (human CETP mRNA [1]; 150 nM) [%] | percent inhibition of CETP (human CETP mRNA [1]; 300 nM) [%] | Percentage of HDL in total cholesterol ([2]; Week 3) [%] | Percentage of HDL in total cholesterol ([2]; week 6) [%] | HDL ([2]; week 3) [mg/dL] | LDL ([2]; week 3) [mg/dL] | Total cholesterol ([2]; week 3) [mg/dL] | Triglycerides ([2]; week 3) [mg/dL] | HDL ([2]; week 6) [mg/dL] | LDL ([2]; week 6) [mg/dL] | Total cholesterol ([2]; week 6) [mg/dL] | Triglycerides ([2]; week 6) [mg/dL] | VLDL ([2]; week 6) [mg/dL] | % inhibition (human CETP mRNA [3]) [%] | Percent inhibition of human CETP mRNA (human CETP mRNA [4]; 100 nM) [%] | Percent inhibition of human CETP mRNA (human CETP mRNA [4]; 200 nM) [%] | Glucose levels ([5]; week 3) [mg/dL] | Glucose levels ([5]; week 6) [mg/dL] | Percent inhibition of plasma CETP protein levels (CETP protein) [%] | other results |
| --- | --- | --- | --- | --- | --- | --- | --- | --- | --- | --- | --- | --- | --- | --- | --- | --- | --- | --- | --- | --- | --- |
| ISIS 17302: GCTTGCCTTCTGCTACAAGC, 6-8-6 MOE; first disclosed in U.S. Ser. No. 11/031,827 (antisense; sugars from the 5' end e6 d8 e6, backbone and methylation of C not given here) | 0 | 41 | 45 | – | – | – | – | – | – | – | – | – | – | – | – | – | – | – | – | – | – |
| ISIS 17291: GACAAGTGGCTGATCTGGAT, 6-8-6 MOE; first disclosed in U.S. Ser. No. 11/031,827 (antisense; sugars from the 5' end e6 d8 e6, backbone and methylation of C not given here) | 35 | 0 | 0 | – | – | – | – | – | – | – | – | – | – | – | – | – | – | – | – | – | – |
| ISIS 17305: CCAGTGGGCCTTTAGGATAG, 6-8-6 MOE; first disclosed in U.S. Ser. No. 11/031,827 (antisense; sugars from the 5' end e6 d8 e6, backbone and methylation of C not given here) | 18 | 44 | 55 | – | – | – | – | – | – | – | – | – | – | – | – | – | – | – | – | – | – |
| ISIS 349515: 5-10-5 MOE gapmer AACTTCCACCACGCTGGAGG (sugars from the 5' end e5 d10 e5, backbone and methylation of C not given here) | – | – | – | 68 | 75 | 60 | 19 | 89 | 83 | 66 | 18 | 87 | 115 | 4 | 53 | 94 | 94 | 275 | 237 | 40 | Percent inhibition of liver CETP mRNA expression, Combined primer probe sets (human CETP mRNA [6]): 57%; Percent inhibition of liver CETP mRNA expression, Primer probe set hCETP (human CETP mRNA [6]): 63%; Percent inhibition of liver CETP mRNA expression, Primer probe set hCETP2_LTS00182 (human CETP mRNA [6]): 52%; Body weights ([7]; Week 0): 25 grams; Body weights ([7]; Week 1): 26 grams; Body weights ([7]; Week 2): 27 grams; Body weights ([7]; Week 4): 28 grams; Body weights ([7]; week 6): 28 grams; Organ weights, Kidney ([7]; week 6): 349.5 mg; Organ weights, Liver ([7]; week 6): 1.7 g; Organ weights, Spleen ([7]; week 6): 89.3 mg |
| ISIS 349513: 5-10-5 MOE gapmer TCCAGCTGTGAGCCTGGTGC (eT*e[5mC]*e[5mC]*eA*eG*d[5mC]*dT*dG*dT*dG*dA*dG*d[5mC]*d[5mC]*dT*eG*eG*eT*eG*e[5mC]) | 87 | 89 | 91 | – | – | – | – | – | – | – | – | – | – | – | 83 | 73 | 92 | – | – | – | percent inhibition of CETP (human CETP mRNA [8]; 50 nM): 97%; percent inhibition of CETP (human CETP mRNA [8]; 150 nM): 100%; percent inhibition of CETP (human CETP mRNA [8]; 300 nM): 95% |
| ISIS 349512: 5-10-5 MOE gapmer TTGCCTTCTGCTACAAGCCC (sugars from the 5' end e5 d10 e5, backbone and methylation of C not given here) | – | – | – | 74 | 74 | 62 | 14 | 85 | 100 | 100 | 31 | 134 | 92 | 3 | 92 | 86 | 96 | 267 | 248 | 76 | percent inhibition of CETP (human CETP mRNA [8]; 50 nM): 86%; percent inhibition of CETP (human CETP mRNA [8]; 150 nM): 98%; percent inhibition of CETP (human CETP mRNA [8]; 300 nM): 97%; Percent inhibition of liver CETP mRNA expression, Combined primer probe sets (human CETP mRNA [6]): 95%; Percent inhibition of liver CETP mRNA expression, Primer probe set hCETP (human CETP mRNA [6]): 96%; Percent inhibition of liver CETP mRNA expression, Primer probe set hCETP2_LTS00182 (human CETP mRNA [6]): 94%; Body weights ([7]; Week 0): 19 grams; Body weights ([7]; Week 1): 21 grams; Body weights ([7]; Week 2): 24 grams; Body weights ([7]; Week 4): 26 grams; Body weights ([7]; week 6): 28 grams; Organ weights, Kidney ([7]; week 6): 333.8 mg; Organ weights, Liver ([7]; week 6): 2.1 g; Organ weights, Spleen ([7]; week 6): 86.8 mg |
